Source: patent US20210277005A1, “PROANGIOGENIC COMPOSITIONS AND METHODS OF USE” (University of North Dakota, priority 2020, published 2021)

How the values were obtained:
HUVEC cells [1] = assay: Effect of inhibitors/antagonists on the AdSucc-induced Ca2+ response; type: cell-based, human; conditions: for effect on Ca2+ response upon AdSucc treatment: PLC inhibitor / IP3 antagonist
Description: (§1) In another example, AdSucc signaling properties were studied. To validate if AdSucc may have a signaling role, the effect of AdSucc on second messenger signaling molecules was studied. […] Our initial data was collected on a plate reader that averages multicellular responses upon AdSucc stimulation. […] To get insights into a mechanism for Ca^2+ release, cells were treated with phospholipase C (PLC) inhibitors U73122 and inositol phosphate triphosphate (IP3) antagonist 2-APB. […] In FIG. 3B, forskolin was used as a positive control (n=5). In FIG. 3C AdSucc is shown to increase cytosolic Ca^2+ in the primary rat brain microvascular endothelia 9b) and HUVEC (c) cells as determined using a plate reader, ATP was used as a positive control.

[2] = Matrigel analysis for products of AdSucc degradation upon incubation in vivo; design: species or system mice; conditions: AdSucc loaded matrigel after in vivo incubation, n=3
Text: (§2) The pro-angiogenic AdSucc effect in vivo using a matrigel plaque loaded with AdSucc (using hemoglobin readout) or DIVA assay kit also loaded with AdSucc (using endothelial cell quantification with FITC labeled lectin) was also studied (FIG. 4B). In both assays, matrigel was implanted into nude mice (s.c.) for 10 days. […] In addition, in the matrigel assay, the concentration of AdSucc degradation products, SuccAd, was 1000-fold lower than AdSucc, and adenosine was undetectable in the matrigel (FIG. 4C).

HUVEC cells [3] = assay: In vitro sprouting assay on collagen matrix; type: cell-based, human; conditions: 24 h, normoxia; for invasion and sprouting of HUVEC cells: 0.5 mM in collagen matrix, n=4
Description: In another example AdSucc's role in angiogenesis was studied. Two different models were used to collect preliminary data in support of AdSucc angiogenic properties. First, an in vitro sprouting assay—a critical step in angiogenesis—was used. HUVEC cells were plated on collagen matrix containing AdSucc, SuccAd, VEGF, or vesicle control for 24 h. For quantification of invaded and sprouted structures, z-stacked images were taking using transmitted light illumination in identical fields following glutaraldehyde fixation and toluidine blue staining. […] The concentrations used (0.5 mM) were in the range found in the brain under low energy conditions.

[4] = system: mice with transient middle cerebral artery occlusion (MCAO); assay: Stroke model: 45 min transient middle cerebral artery occlusion (MCAO), intranasal treatment; type: in vivo; conditions: AdSucc intranasally 2 h after reperfusion and then every 24 h, 10 μL/animal, 20 mM in PBS; tested 1-7 days post MCAO
Description: In an example, Stroke was induced in 3 month old mice with 45 min of transient middle cerebral artery occlusion (MCAO) using an intraluminal filament and performed in a double-blind manner. To correct for edema and necrotic tissue loss, corrected infarct volume was calculated as [(volume of the contralateral hemisphere) minus (volume of the viable tissue in ischemic hemisphere)] after triphenyl tetrazolium chloride (TTC) staining on day 7 post-reperfusion. Following MCAO, a modified neurological deficiency score was used to grade neurological function. A series of motor (muscle status, movement, and balance), sensory (visual, tactile, and proprioceptive) and reflex tests were graded (0—being normal and 18—maximal deficit score) by investigator who was blinded to the experimental groups. Mice were tested 1, 3, 5, and 7 days post MCAO surgery. Deaths were plotted and analyzed as survival probability. Mice were treated with AdSucc intranasally 2 h after reperfusion and then every 24 h (10 μL/animal over 10 min, 20 mM in PBS, pH=7.2). […] FIG. 1A is a graph showing neurological deficiency in the test subjects. In FIG. 1A, higher numbers indicate higher deficiency between saline and AdSucc treated animals at the same test day. […] FIG. 1C is a graph showing representative blood flow rate during MCAO surgery as recorded with a laser Doppler sensor.

[5] = Brain AdSucc concentration after intranasal AdSucc treatment; type: in vivo, mice; conditions: 10 μL/animal over 10 min, 20 mM in PBS, pH=7.2
HUVEC cells [6] = assay: cAMP levels in endothelial cells; type: cell-based, human; conditions: forskolin positive control
Description: as §1

HUVEC cells [7] = assay: Intracellular Ca2+ levels in HUVEC cells (plate reader, single cell imaging); type: cell-based, human
Description: as §1

[8] = system: primary rat microvascular endothelial cells; assay: Intracellular Ca2+ levels in primary rat brain microvascular endothelial cells (plate reader); type: cell-based; conditions: ATP positive control
Description: as §1

nude mice [9] = assay: In vivo matrigel plaque angiogenesis assay (hemoglobin readout); conditions: AdSucc 0.5 mM in matrigel, s.c. in nude mice, 10 days, n=4
Text: as §2

nude mice [10] = assay: In vivo DIVA assay kit (endothelial cell quantification with FITC labeled lectin); conditions: AdSucc 0.5 mM loaded, s.c. in nude mice, 10 days, n=4
Text: as §2

For `NCCOB(c1ccccc1)c1ccccc1` [2-APB], the “effect on Ca2+ response upon AdSucc treatment” value (HUVEC cells [1]; HUVEC cells, n=5) was “significantly attenuated”.

With `COc1ccc2c(c1)CC[C@@H]1[C@@H]2CC[C@]2(C)[C@@H](NCCCCCCN3C(=O)C=CC3=O)CC[C@@H]12` [U73122] the “effect on Ca2+ response upon AdSucc treatment” value (HUVEC cells [1]; HUVEC cells, n=5) was “significantly attenuated”.

With `Nc1ncnc2c1ncn2[C@@H]1O[C@H](CO)[C@@H](O)[C@H]1O` [adenosine] the “degradation product level in the matrigel” value [2] was “undetectable”.

With `Cc1nc(N=Nc2ccc(S(=O)(=O)O)cc2S(=O)(=O)O)c(COP(=O)(O)O)c(C=O)c1O` [PPADS] the “effect on AdSucc-induced Ca2+ response” value (HUVEC cells [1]; non-selective P2 purinergic antagonist, HUVEC cells, n=5) was “significantly attenuated”.

In the case of `Cc1cc(N2CCCCC2)nc2ccccc12` [ML 204], the “effect on AdSucc-induced Ca2+ signaling” value (HUVEC cells [1]; TRPC 4/5 antagonist at 25 μM) was “did not affect”.

In the case of `O=C(O)C[C@H](Nc1ncnc2c1ncn2[C@@H]1O[C@H](CO)[C@@H](O)[C@H]1O)C(=O)O` [SuccAd, N-(9-β-D-ribofuranosyl-9H-purin-6-yl)-L-aspartic acid], the “invasion and sprouting of HUVEC cells” value (HUVEC cells [3]) was “did not have an effect” and the “concentration of the AdSucc degradation product in the matrigel, relative to AdSucc” value ([2]; lower than AdSucc) was 1000 fold.

For `O=C(O)C[C@H](Nc1ncnc2c1ncn2[C@@H]1O[C@H](COP(=O)(O)O)[C@@H](O)[C@H]1O)C(=O)O` [AdSucc, (2S)-2-({9-[(2R,3R,4S,5R)-3,4-dihydroxy-5-[(phosphonooxy)methyl]oxolan-2-yl]-9H-purin-6-yl}amino)butanedioic acid], the “outcome after stroke injury (neurological deficiency score, survival, corrected infarct volume)” value [4] was “significant improvement”, the “brain AdSucc concentrations” value [5] was “significantly increased” and the “effect on cAMP levels” value (HUVEC cells [6]) was “no effect”. For the same compound, the “Ca2+ increase by single cell Ca2+ imaging” value (HUVEC cells [7]; 2 micromolar Fura, 0 and 100 sec after AdSucc 0.3 mM in PBS) was “independently confirmed”, the “effect on intracellular Ca2+ levels” value (HUVEC cells [7]; plate reader, AdSucc at the concentration found in the ischemic brain, comparable to ATP treatment) was “very profound effect” and the “effect on intracellular Ca2+ levels” value [8] was “very profound effect”. The “invasion and sprouting of HUVEC cells” value (HUVEC cells [3]) was “significantly potentiated”, the “invasion and sprouting effect compared to VEGF” value (HUVEC cells [3]; 0.5 mM) was “higher effect compared to VEGF” and the “angiogenesis in loaded matrigel (hemoglobin)” value (nude mice [9]) was “significantly increased”. For the same compound, the “angiogenesis in DIVA assay (FITC lectin labeled endothelial cells)” value (nude mice [10]) was “significantly increased”.

With `Cc1c(C(=O)Nc2cccc(C(F)(F)F)c2)cc(-c2ccccc2)n1CCCN1CCOCC1` [HC 067047] the “effect on AdSucc-induced Ca2+ signaling” value (HUVEC cells [1]; TROV4 antagonist at 0.5 μM) was “did not affect”.
